pIC50: −log10 of the molar value.
molecular target: T1, PKCε (h) (Homo sapiens, UniProt Q02156); assay: In vitro PKCε kinase assay (radiometric, [γ-33P-ATP], HotSpot); format: biochemical; conditions: recombinant human PKCε, 10 μM ATP; read-out: IC50 in antagonizing the PKCε
T1 construct: host or cells: insect cells
T1 sequence (Q02156 1-737): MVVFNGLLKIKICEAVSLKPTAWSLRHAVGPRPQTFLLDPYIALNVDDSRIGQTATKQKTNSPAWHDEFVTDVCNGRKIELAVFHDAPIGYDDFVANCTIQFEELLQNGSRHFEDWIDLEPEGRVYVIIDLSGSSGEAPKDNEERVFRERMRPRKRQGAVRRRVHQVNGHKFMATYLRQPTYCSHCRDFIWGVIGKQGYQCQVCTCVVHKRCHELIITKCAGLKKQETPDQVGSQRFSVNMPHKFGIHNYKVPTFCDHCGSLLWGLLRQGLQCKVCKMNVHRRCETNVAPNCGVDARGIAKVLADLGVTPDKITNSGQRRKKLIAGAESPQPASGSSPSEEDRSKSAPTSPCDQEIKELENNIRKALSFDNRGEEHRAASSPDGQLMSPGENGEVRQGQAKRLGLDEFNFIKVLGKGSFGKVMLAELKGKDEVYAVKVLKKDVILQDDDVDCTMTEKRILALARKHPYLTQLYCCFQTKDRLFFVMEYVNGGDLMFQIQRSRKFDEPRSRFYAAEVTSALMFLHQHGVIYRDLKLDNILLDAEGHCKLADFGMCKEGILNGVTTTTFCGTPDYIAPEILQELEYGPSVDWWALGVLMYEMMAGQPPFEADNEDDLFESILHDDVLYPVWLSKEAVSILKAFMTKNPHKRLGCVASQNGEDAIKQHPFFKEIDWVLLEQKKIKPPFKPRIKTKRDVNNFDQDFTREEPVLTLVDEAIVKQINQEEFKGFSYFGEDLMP
Description: There are many in vitro commercially available and validated bioassays (Ma, H., et al, Expert Opin Drug Discov. 2008 June; 3(6): 607-621 and references therein) which can be used to characterize the activities of compounds of the present invention against PKCε protein kinase. Compounds can be tested against the activity of recombinant PKCε. In a final reaction volume of 25 μL, PKCε (h) (0.4 nM, Human recombinant protein expressed in insect cells. Mw=83.7 kDa) is incubated with kinase buffer (20 mM HEPES-HCl, pH 7.5, 10 mM MgCl2, 1 mM EGTA, 0.02% Brij35, 0.1 mM Na3VO4, 0.02 mg/ml BSA, 2 mM DTT, and 1% DMSO), 0.1 mg/mL phosphatidylserine, 10 μg/mL diacylglycerol, 20 μM S25-PKC peptide substrate (RFARKGSLRQKNV-OH, Mw=1561 Da), 10 mM MgAcetate and 10 μM [γ-33P-ATP] (specific activity approx. 500 cpm/pmol). The reaction is initiated by the addition of the MgATP mix. After incubation for 40 minutes at room temperature, the reaction is stopped by the addition of 5 μL of a 3% phosphoric acid solution. 10 μL of the reaction is then spotted onto a P30 filtermat and washed three times for 5 minutes in 75 mM phosphoric acid and once in methanol prior to drying and scintillation counting Control samples are incubated without inhibitor to measure maximal activity or with the general kinase inhibitor Staurosporine (5 μM) to measure complete inhibition. For each compound the % inhibition can be calculated by the formula, or by curve fits: % Inhibition=(Max activity−Activity with compound)/(Max activity−Activity with Control)*100. Compounds with inhibitory activity are assayed using at least 5 concentrations (1 nM-300 μM). Concentrations are adjusted to generate a complete dose-response curve. Each sample is assayed in duplicate and each experiment is repeated three times. Results are fitted by non-linear regression analysis to a sigmoidal dose-response curve with variable slope to calculate Hill slope, log IC50 and Imax values for each inhibitor, using the program Prism 5 (GraphPad Software, Inc., San Diego, Calif.).
Kinase profiling was performed using HotSpot technology (Reaction Biology Corp. 11 Malvern, Pa., USA). This technology is a radioisotope-based P81 filter-binding assay. Compound of the present invention were dissolved in pure DMSO to make a 10 mM stock, then diluted in pure DMSO to make a serial dilution based on the IC50 ranges. PKCε (h) (0.4 nM, human recombinant protein expressed in insect cells. Mw=83.7 kDa) and substrate (20 μM peptide substrate, [RFARKGSLRQKNV]) were diluted in the reaction buffer (20 mM HEPES-HCl, pH 7.5, 10 mM MgCl2, 1 mM EGTA, 0.02% Brij35, 0.1 mM Na3VO4, 0.02 mg/ml BSA, 2 mM DTT, and 1% DMSO), and then 5 nL of compound was delivered into PKCε (h) and substrate mixture by acoustic technology using Echo 550 (LabCyte Inc., Sunnyvale, Calif.). The reaction was initiated by the addition of [γ-33P-ATP] into the reaction mixture (final concentration was 10 μM) and stopped after at least 40 min incubation at room temperature. The unreacted free 33P-ATP was washed away before detection.
The intrinsic PKCε antagonist activity of a compound which may be used in the present invention may be determined by these assays. […] Such a result is indicative of the intrinsic activity of the compounds in use as antagonists of PKCε.

SMILES | pIC50
Cc1oc(-c2ccc(Cl)cc2)nc1CN1CCC(C(=O)NCCCN2CCOCC2)CC1 [Compound 935, 1-{[2-(4-chlorophenyl)-5-methyl-1,3-oxazol-4-yl]methyl}-N-[3-(morpholin-4-yl)propyl]piperidine-4-carboxamide] | 6.00 to 8.00
O=C(NCCCN1CCCC1)c1ccc(/C=C2\Oc3ccccc3N(Cc3ccccc3F)C2=O)cc1 [Compound 483, 4-{(Z/E)-[4-(2-fluorobenzyl)-3-oxo-3,4-dihydro-2H-1,4-benzoxazin-2-ylidene]methyl}-N-[3-(pyrrolidin-1-yl)propyl]benzamide hydrate] | 6.00 to 8.00
C/C(=C1/Oc2ccccc2N(Cc2ccc(F)cc2F)C1=O)c1ccc(C(=O)NCCCN2CCOCC2)cc1 [Compound 837, 4-{(1Z/1E)-1-[4-(2,4-difluorobenzyl)-3-oxo-3,4-dihydro-2H-1,4-benzoxazin-2-ylidene]ethyl}-N-[3-(morpholin-4-yl)propyl]benzamide] | 6.00 to 8.00
Cc1oc(-c2ccc3c(c2)OCO3)nc1CN1CCC(C(=O)NCCCN2CCCCCC2)CC1 [Compound 949, N-[3-(azepan-1-yl)propyl]-1-{[2-(1,3-benzodioxol-5-yl)-5-methyl-1,3-oxazol-4-yl]methyl}piperidine-4-carboxamide] | 6.00 to 8.00
O=C(NCCCN1CCCCCC1)c1ccc(C=C2Sc3ccccc3N(Cc3ccccc3F)C2=O)cc1 (mixture of isomers) [Compound 485, N-[3-(azepan-1-yl)propyl]-4-{(Z/E)-[4-(2-fluorobenzyl)-3-oxo-3,4-dihydro-2H-1,4-benzothiazin-2-ylidene]methyl}benzamide] | 6.00 to 8.00
Cc1oc(-c2cccc(Cl)c2)nc1CN1CCC(C(=O)NCCCN2CCC(Cc3cccc(Cl)c3)CC2)CC1 [Compound 911, N-{3-[4-(3-chlorobenzyl)piperidin-1-yl]propyl}-1-{[2-(3-chlorophenyl)-5-methyl-1,3-oxazol-4-yl]methyl}piperidine-4-carboxamide] | 6.00 to 8.00
O=C(NCCCN1CCCC1)c1ccc(C=C2Oc3ccccc3N(Cc3ccccc3C(F)(F)F)C2=O)cc1 (mixture of isomers) [Compound 801, 4-[(Z/E)-{3-oxo-4-[2-(trifluoromethyl)benzyl]-3,4-dihydro-2H-1,4-benzoxazin-2-ylidene}methyl]-N-[3-(pyrrolidin-1-yl)propyl]benzamide] | 6.00 to 8.00

The remaining lines, values ahead:

pIC50 | SMILES
6.00 to 8.00 | O=C(NCCCc1ccncc1)c1ccc(C=C2Sc3ccccc3N(Cc3ccccc3F)C2=O)cc1 (mixture of isomers) [Compound 825, 4-{(Z/E)-[4-(2-fluorobenzyl)-3-oxo-3,4-dihydro-2H-1,4-benzothiazin-2-ylidene]methyl}-N-[3-(pyridin-4-yl)propyl]benzamide]
6.00 to 8.00 | CN(CCCN1CCOCC1)C(=O)c1ccc(C=C2Oc3ccccc3N(Cc3ccccc3F)C2=O)cc1 (mixture of isomers) [Compound 841, 4-{(Z/E)-[4-(2-fluorobenzyl)-3-oxo-3,4-dihydro-2H-1,4-benzoxazin-2-ylidene]methyl}-N-methyl-N-[3-(morpholin-4-yl)propyl]benzamide]
6.00 to 8.00 | Cc1oc(-c2ccc(Cl)cc2)nc1CN1CCC(C(=O)NCCCN2CCCCCC2)CC1 [Compound 901, N-[3-(azepan-1-yl)propyl]-1-{[2-(4-chlorophenyl)-5-methyl-1,3-oxazol-4-yl]methyl}piperidine-4-carboxamide]
6.00 to 8.00 | Cc1oc(-c2ccc(Cl)cc2)nc1CN1CCC(C(=O)NCCN2CCCC2)CC1 [Compound 597, 1-{[2-(4-chlorophenyl)-5-methyl-1,3-oxazol-4-yl]methyl}-N-(2-pyrrolidin-1-ylethyl)piperidine-4-carboxamide]
6.00 to 8.00 | Cc1oc(-c2ccc(Cl)cc2)nc1CN1CCC(C(=O)N(C)CCCN2CCCCCC2)CC1 [Compound 929, N-[3-(azepan-1-yl)propyl]-1-{[2-(4-chlorophenyl)-5-methyl-1,3-oxazol-4-yl]methyl}-N-methylpiperidine-4-carboxamide]
6.00 to 8.00 | Cc1oc(-c2ccc(Cl)cc2)nc1CN1CCC(C(=O)NCCCN2CCC(Cc3ccccc3)CC2)CC1 [Compound 907, N-[3-(4-benzylpiperidin-1-yl)propyl]-1-{[2-(4-chlorophenyl)-5-methyl-1,3-oxazol-4-yl]methyl}piperidine-4-carboxamide]
6.00 to 8.00 | CC(=C1Oc2ccccc2N(Cc2ccc(F)cc2)C1=O)c1ccc(C(=O)NCCCN2CCOCC2)cc1 (mixture of isomers) [Compound 829, N-4-{(1Z/1E)-1-[4-(4-fluorobenzyl)-3-oxo-3,4-dihydro-2H-1,4-benzoxazin-2-ylidene]ethyl}-N-[3-(morpholin-4-yl)propyl]benzamide]
6.00 to 8.00 | CC(=C1Oc2ccccc2N(Cc2ccc(F)cc2)C1=O)c1ccc(C(=O)NCCCN2CCCCCC2)cc1 (mixture of isomers) [Compound 821, N-[3-(azepan-1-yl)propyl]-4-{(1Z/1E)-1-[4-(4-fluorobenzyl)-3-oxo-3,4-dihydro-2H-1,4-benzoxazin-2-ylidene]ethyl}benzamide]
6.00 to 8.00 | O=C(NCN1CCC2CCCCC2C1)c1ccc(/C=C2\Oc3ccccc3N(Cc3ccccc3F)C2=O)cc1 (mixture of isomers) [Compound 817, 4-{(Z/E)-[4-(2-fluorobenzyl)-3-oxo-3,4-dihydro-2H-1,4-benzoxazin-2-ylidene]methyl}-N-(octahydroisoquinolin-2(1H)-ylmethyl)benzamide]

test system: C57BL/6J mice; assay: Alcohol intake in Drink-in-Dark (DID) model; format: in vivo; conditions: 4-hr drinking in the dark (DID) protocol, compared with vehicle control, FIG. 2
Source text: FIG. 2. […] The data are presented as mean±SEM. *p<0.05, ***p<0.001 as compared with the vehicle control.
Alcohol Intake in Drink-in-Dark (DID) model (Rhodes J S, et al, Physiol Behav. (2005) 84:53-63). Mice are acclimated in animal facility and housed three to four per cage in standard cages until 1 week prior to the start of an experiment when they are transferred to individual housing. Approximately 2 weeks prior to the start of an experiment, the mice are switched to a reverse light/dark schedule such that lights turned on at 2030 h and off at 0830 h. Food (Purina 5001™) is always provided ad libitum. Water is provided ad libitum except when ethanol is substituted for water for 4 h per day. The animals are divided into 4 groups and given intraperitoneal (i.p.) injections of vehicle, and a test article (TA) at 5, 20 and 50 mg/kg body weight, respectively, starting 3 h after lights off in the animal rooms. Then the water bottles are replaced with 10 ml graduated cylinders fitted with sipper tubes containing 20% (v/v) ethanol in tap water. The ethanol cylinders remain in place for 4 h. The fluid levels are checked every 30 minutes for 4 h. After the 4-h period, the ethanol cylinders are replaced with water bottles. […] Similarly, mice are administered with TA by oral gavage and ethanol or water intake is monitored for 4 h.

SMILES | oral intake of alcohol (20% ethanol)
Cc1oc(-c2ccc(Cl)cc2)nc1CN1CCC(C(=O)NCCCN2CCCCCC2)CC1 [Compound 901, N-[3-(azepan-1-yl)propyl]-1-{[2-(4-chlorophenyl)-5-methyl-1,3-oxazol-4-yl]methyl}piperidine-4-carboxamide] | significantly reduced

Reference: patent US8729081B2, “Compositions and methods for treating alcohol use disorders, pain and other diseases” (VM Discovery Inc., priority 2008, dated 2014)
